Entries after “also recorded” stand apart in the source; their conditions may differ.
Columns and labels:
hNav1.1 = target: T1, hNav1.1 (Homo sapiens, UniProt P35498); test: Two-electrode voltage-clamp recording from Xenopus oocytes expressing hNav1.1 with β1; type: cell-based; details: for hNav1.1 Inactivation (V1/2), steady-state inactivation / hNav1.1 Activation (V1/2): 100 μM drug, Xenopus oocytes, DMSO 1% or less; for hNav1.1 Activation (V1/2): at least one hour incubation, ** = p<0.005 vs DMSO; for effect on hNav1.1 opening / gating (in words): G/Gmax vs DMSO control; for effect on hNav1.1 persistent current (in words): end of a 50 ms test pulse; for depolarizing shift in hNav1.1 channel activation voltage: vs DMSO control
T1 construct: host or cells: Xenopus oocytes (cRNA injection)

hNav1.6 = target: T2, hNav1.6 (Homo sapiens, UniProt Q9UQD0); test: Two-electrode voltage-clamp recording from Xenopus oocytes expressing hNav1.6 with β1; type: cell-based; details: for hNav1.6 Activation (V1/2) / hNav1.6 Inactivation (V1/2), steady-state inactivation: 100 μM drug, Xenopus oocytes, DMSO 1% or less
T2 construct: host or cells: Xenopus oocytes (cRNA injection)

hNav1.2 = target: T3, hNav1.2 (Homo sapiens, UniProt Q99250); test: Two-electrode voltage-clamp recording from Xenopus oocytes expressing hNav1.2 with β1; type: cell-based; details: for effect on hNav1.2 opening / tested gating parameters (in words): 100 μM, vs DMSO control; for hNav1.2 Activation (V1/2) / hNav1.2 Inactivation (V1/2), steady-state inactivation: 100 μM drug, Xenopus oocytes, DMSO 1% or less
T3 construct: host or cells: Xenopus oocytes (cRNA injection)

hNav1.3 = target: T4, hNav1.3 (Homo sapiens, UniProt Q9NY46); test: Two-electrode voltage-clamp recording from Xenopus oocytes expressing hNav1.3 with β1; type: cell-based; details: for effect on hNav1.3 opening / tested gating parameters (in words): 100 μM, vs DMSO control; for hNav1.3 Activation (V1/2) / hNav1.3 Inactivation (V1/2), steady-state inactivation: 100 μM drug, Xenopus oocytes, DMSO 1% or less
T4 construct: host or cells: Xenopus oocytes (cRNA injection)

α1/β2/γ2 GABAA receptor = target: T5, α1/β2/γ2 GABAA receptor (Homo sapiens, UniProt P14867+P18507+P47870); test: GABAA receptor activation in oocytes held at −70 mV; type: cell-based; details: 100 μM; 5 μM muscimol as activator control
T5 construct: expressed in transfected cells; host or cells: oocytes (heterologous expression inferred)
Source text: Oocytes were kept at −70 mV throughout the experiment.

Solubility of rufinamide = type: physicochemical
[1] = tested on: 6 Hz (17 mA) induced partial seizures in male Cr1:CF1 mice; test: 6 Hz psychomotor seizure induction; type: in vivo; details: 75 mg/kg ip, p<0.0001
Experimental: (§1) Animal husbandry and drug administration. Male Cr1:CF1 mice (10-12 weeks old, Charles River) were housed under a 12 hour light-dark cycle with free access to food and water and all experiments were carried out between 10 am and 4 pm. 1-[phenyl-methyl]-1H-1,2,3-triazole-4-carboxamide-5-methyl (Compound B) (Sigma Aldrich) was suspended in a 40% solution of cyclodextrin (Sigma Aldrich) in sterile saline (0.9%) and 15 minutes prior to each seizure induction paradigm, 75 mg/kg of compound B was administered via intraperitoneal injection (ip) injection. Vehicle treated animals were similarly administrated 40% cyclodextrin and served as the controls for each experiment. The Emory University Institutional Animal Care and Use Committee approved all experimental protocols involving mice.
6 Hz psychomotor seizure induction. Topical anesthetic (0.5% tetracaine hydrochloride ophthalmic solution) was applied to the cornea 30 minutes before testing. Fifteen minutes prior to seizure induction, mice were administrated vehicle or compound B (n=12 per group). Each mouse was manually restrained and corneal stimulation (0.2 ms pulse, 6 Hz, 3s) was performed at a current intensity of 17 mA (ECT Unit 57800; Ugo Basile, Comerio Italy). […]

[2] = tested on: picrotoxin-induced generalized seizures in male Cr1:CF1 mice; test: Picrotoxin seizure induction; type: in vivo
Experimental: as §1
Seizure induction paradigms and analyses. Picrotoxin seizure induction—15 minutes prior to i.p. injection of picrotoxin (10 mg/kg, Sigma Aldrich), mice were administered vehicle or compound B (n=12 per group). Latencies to the first myoclonic jerk, forelimb clonus, and generalized tonic-clonic seizure were compared between compound B and vehicle-treated mice. The myoclonic jerk is characterized by a sudden jerk of the upper body whereas forelimb clonus involves rapid movement of the forelimbs for at least 5s. Finally, the generalized tonic-clonic seizure involves the loss of postural control with rapid movement of the limbs for at least 5s.
Statistical analysis. A Student's t-test was used to identify statistically significant differences in latencies between vehicle- and compound B-treated groups for each seizure phenotype following administration of flurothyl and picrotoxin. […] All data are presented as the mean±s.e.m.; p values <0.05 were considered significant.

[3] = tested on: flurothyl-induced generalized seizures in male Cr1:CF1 mice; test: Flurothyl seizure induction; type: in vivo; details: 75 mg/kg ip, vs vehicle, p=0.6
Experimental: as §1
Flurothyl Seizure induction. Latencies to flurothyl-induced seizures were determined as previously described (Neurobiol Dis 49C, 211-220 (2012)). Briefly, flurothyl (2,2,2-trifluroethylether; Sigma Aldrich) was dispensed at a rate of 20 μl/minute into a Plexiglas chamber and latencies to three behavioral phenotypes were compared between vehicle-treated and compound B-treated (75 mg/kg) mice (n=12 per group): 1) the first myoclonic jerk, 2) a generalized tonic-clonic seizure, and 3) a generalized tonic-clonic seizure with tonic extension. […]

[4] = 75 mg/kg ip 15 minutes prior to picrotoxin 10 mg/kg, vs vehicle

T5 sequence (P14867 28-456): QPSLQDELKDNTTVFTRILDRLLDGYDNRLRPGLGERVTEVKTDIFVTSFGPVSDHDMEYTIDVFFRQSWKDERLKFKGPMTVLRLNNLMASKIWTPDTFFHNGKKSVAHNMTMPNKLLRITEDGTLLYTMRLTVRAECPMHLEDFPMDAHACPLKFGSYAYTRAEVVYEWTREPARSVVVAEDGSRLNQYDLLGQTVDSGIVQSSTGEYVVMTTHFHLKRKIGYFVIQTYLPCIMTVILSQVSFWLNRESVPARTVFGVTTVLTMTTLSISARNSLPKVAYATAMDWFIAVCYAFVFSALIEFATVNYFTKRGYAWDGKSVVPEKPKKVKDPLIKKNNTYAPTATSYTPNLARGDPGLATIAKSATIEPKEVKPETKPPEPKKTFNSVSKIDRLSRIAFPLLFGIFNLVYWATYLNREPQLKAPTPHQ
T5 sequence (P47870 25-512 limits assumed): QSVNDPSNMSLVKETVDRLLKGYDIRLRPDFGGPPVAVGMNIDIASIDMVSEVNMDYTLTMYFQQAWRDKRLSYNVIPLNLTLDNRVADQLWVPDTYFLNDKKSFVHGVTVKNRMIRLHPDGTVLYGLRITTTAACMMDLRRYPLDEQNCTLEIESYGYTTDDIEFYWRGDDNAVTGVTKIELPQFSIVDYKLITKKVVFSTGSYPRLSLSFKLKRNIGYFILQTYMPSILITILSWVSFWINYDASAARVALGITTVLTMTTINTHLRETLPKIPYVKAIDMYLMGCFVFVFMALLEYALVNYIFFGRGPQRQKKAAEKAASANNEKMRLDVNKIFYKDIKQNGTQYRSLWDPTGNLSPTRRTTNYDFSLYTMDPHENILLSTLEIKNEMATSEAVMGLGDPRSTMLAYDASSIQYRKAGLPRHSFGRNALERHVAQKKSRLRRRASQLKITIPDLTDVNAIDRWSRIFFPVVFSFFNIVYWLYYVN
T5 sequence (P18507 40-475): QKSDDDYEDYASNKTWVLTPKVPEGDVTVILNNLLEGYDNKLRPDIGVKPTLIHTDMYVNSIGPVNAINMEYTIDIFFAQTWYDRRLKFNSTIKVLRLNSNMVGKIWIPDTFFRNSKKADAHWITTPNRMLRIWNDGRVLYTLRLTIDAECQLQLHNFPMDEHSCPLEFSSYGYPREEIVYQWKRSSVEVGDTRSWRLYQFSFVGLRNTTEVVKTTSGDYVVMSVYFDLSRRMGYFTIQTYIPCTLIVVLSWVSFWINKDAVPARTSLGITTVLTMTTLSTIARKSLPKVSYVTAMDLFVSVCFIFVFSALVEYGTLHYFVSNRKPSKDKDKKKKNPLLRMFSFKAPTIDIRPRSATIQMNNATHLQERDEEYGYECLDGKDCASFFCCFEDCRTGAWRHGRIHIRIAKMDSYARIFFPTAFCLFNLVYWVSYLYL

Compound | hNav1.1 Inactivation (V1/2), steady-state inactivation (hNav1.1) [mV] | hNav1.1 Activation (V1/2) (hNav1.1) [mV] | effect on hNav1.1 opening / gating (in words) (hNav1.1; 100 μM) | effect on hNav1.1 persistent current (in words) (hNav1.1; 100 μM) | effect on hNav1.6 opening / tested gating parameters (in words) (hNav1.6; 100 μM, vs DMSO control) | effect on hNav1.2 opening / tested gating parameters (in words) (hNav1.2) | effect on hNav1.3 opening / tested gating parameters (in words) (hNav1.3) | other results
OCc1cn(Cc2cccc(F)c2)nn1 [Compound C, 1-[(3-fluorophenyl)methyl]-1H-1,2,3-Triazole-4-hydroxymethyl] | −49.2 ± 0.6 | −38.4 ± 1.3 | does not influence hNav1.1 gating; also recorded: no longer affects hNav1.1 opening | – | – | – | – | –
COC(=O)c1nnn(Cc2c(F)cccc2F)c1C [Compound L, 1-[(2,6-difluorophenyl)methyl]-1H-1,2,3-triazole-carboxymethyl-5-methyl] | – | – | much smaller compared to compound B | – | – | – | – | shift of midpoint of hNav1.6 channel availability (steady-state inactivation) (hNav1.6; 100 μM, vs DMSO control): ~−20 mV
NC(=O)c1nnn(Cc2cccc(F)c2)c1N [Compound A, 1-[(3-fluorophenyl)methyl]-1H-1,2,3-Triazole-4-carboxamide-5-amine] | −50.5 ± 1.2 | −30.8 ± 1.0 | clearly inhibit hNav1.1 opening | neither of these compounds influences | – | – | – | –
CCc1c(C(N)=O)nnn1Cc1ccccc1 [Compound F, 1-(phenylmethyl)-1H-1,2,3-triazole-4-carboxamide-5-ethyl] | – | – | inhibits hNav1.1 opening | does not influence | not significant | not significant | not significant | effect on hNav1.1 steady-state inactivation (in words) (hNav1.1; 100 μM): does not influence; depolarizing shift in hNav1.1 channel activation voltage (hNav1.1; 100 μM): ~+12 mV
NC(=O)c1cn(Cc2c(F)cccc2F)nn1 [Rufinamide, 1-[(2,6-difluorophenyl)methyl]-1H-1,2,3-Triazole-4-carboxamide, reference compound] | −47.8 ± 1.6 | −30.6 ± 0.9 | dramatic depolarizing shift; also recorded: inhibits hNav1.1 opening | do not affect persistent current | not inhibited; also recorded: not significant | not inhibited | not inhibited | activation of the α1/β2/γ2 GABAA receptor (in words) (α1/β2/γ2 GABAA receptor): do not activate; also recorded: do not evoke inward GABAA-mediated currents; hNav1.6 Activation (V1/2) (hNav1.6): −28.1 ± 0.8 mV; hNav1.6 Inactivation (V1/2), steady-state inactivation (hNav1.6): −60.0 ± 0.7 mV; effect on entry or voltage-dependence of hNav1.1 slow inactivation (in words) (hNav1.1): do not influence; solubility (Solubility of rufinamide; DMSO, organic solvent or mixture): ≤ 9000 µg/mL; solubility in water (Solubility of rufinamide; water): slightly soluble; hNav1.2 Activation (V1/2) (hNav1.2): −29.5 ± 1.2 mV; hNav1.2 Inactivation (V1/2), steady-state inactivation (hNav1.2): −57.7 ± 0.5 mV; hNav1.3 Activation (V1/2) (hNav1.3): −24.5 ± 2.4 mV; hNav1.3 Inactivation (V1/2), steady-state inactivation (hNav1.3): −52.6 ± 1.6 mV
1-[(2,6-difluorophenyl)methyl]-1H-1,2,3-triazole-carboxymethyl-5-methyl [Compound L] | – | – | only slightly inhibits hNav1.1 opening | – | – | not significant | not significant | effect on hNav1.6 steady-state inactivation (in words) (hNav1.6; 100 μM): dramatically affect hNav1.6 steady-state inactivation
Cc1c(C(N)=O)nnn1Cc1ccccc1 [Compound B, 1-[phenyl-methyl]-1H-1,2,3-Triazole-4-carboxamide-5-methyl] | −49.4 ± 0.3 | −27.4 ± 1.0 | more efficaciously when compared to rufinamide; also recorded: clearly inhibit hNav1.1 opening | do not affect persistent current | unaltered | unaltered | unaltered | severity of seizures vs vehicle (modified Racine scale), 6 Hz [1]: dramatically less severe; also recorded: typically less severe; activation of the α1/β2/γ2 GABAA receptor (in words) (α1/β2/γ2 GABAA receptor): do not activate; also recorded: do not evoke inward GABAA-mediated currents; frequency of the behavioral seizures vs vehicle, picrotoxin ([2]; 75 mg/kg ip): no difference; average latency to forelimb clonus (FC), picrotoxin [2, 4]: no statistically significant differences; average latency to the first myoclonic jerk (MJ), picrotoxin [2, 4]: no statistically significant differences; hNav1.6 Activation (V1/2) (hNav1.6): −23.8 ± 1.9 mV; hNav1.6 Inactivation (V1/2), steady-state inactivation (hNav1.6): −62.6 ± 0.7 mV; effect on entry or voltage-dependence of hNav1.1 slow inactivation (in words) (hNav1.1): do not influence; depolarizing shift in hNav1.1 channel activation voltage (hNav1.1; 100 μM): ~+11 mV; Voltage-dependence of SI (V), V1/2 of hNav1.1 slow inactivation (hNav1.1; oocytes expressing hNav1.1, Boltzmann fit): −43.2 ± 1.3 mV; Entry into SI (T), time constant of entry into hNav1.1 slow inactivation (hNav1.1; oocytes expressing hNav1.1, single exponential fit): 5.5 ± 0.4 s; average latency to the MJ, flurothyl [3]: comparable; hNav1.2 Activation (V1/2) (hNav1.2): −23.6 ± 1.1 mV; hNav1.2 Inactivation (V1/2), steady-state inactivation (hNav1.2): −53.6 ± 1.2 mV; hNav1.3 Activation (V1/2) (hNav1.3): −25.8 ± 1.4 mV; hNav1.3 Inactivation (V1/2), steady-state inactivation (hNav1.3): −50.0 ± 0.8 mV
NC(=O)c1nnn(Cc2ccc(F)cc2)c1N [Compound D, 1-[(4-fluorophenyl)methyl]-1H-1,2,3-Triazole-4-carboxamide-5-amine] | −49.8 ± 1.6 | −32.5 ± 2.3 | not significant | – | – | – | – | –

Source: patent US9771335B2 (THE JOHNS HOPKINS UNIVERSITY, priority 2015, dated 2017)
